Biological target: T1, recombinant mouse APA (Mus musculus, UniProt P16406)
T1 sequence (P16406 1-945): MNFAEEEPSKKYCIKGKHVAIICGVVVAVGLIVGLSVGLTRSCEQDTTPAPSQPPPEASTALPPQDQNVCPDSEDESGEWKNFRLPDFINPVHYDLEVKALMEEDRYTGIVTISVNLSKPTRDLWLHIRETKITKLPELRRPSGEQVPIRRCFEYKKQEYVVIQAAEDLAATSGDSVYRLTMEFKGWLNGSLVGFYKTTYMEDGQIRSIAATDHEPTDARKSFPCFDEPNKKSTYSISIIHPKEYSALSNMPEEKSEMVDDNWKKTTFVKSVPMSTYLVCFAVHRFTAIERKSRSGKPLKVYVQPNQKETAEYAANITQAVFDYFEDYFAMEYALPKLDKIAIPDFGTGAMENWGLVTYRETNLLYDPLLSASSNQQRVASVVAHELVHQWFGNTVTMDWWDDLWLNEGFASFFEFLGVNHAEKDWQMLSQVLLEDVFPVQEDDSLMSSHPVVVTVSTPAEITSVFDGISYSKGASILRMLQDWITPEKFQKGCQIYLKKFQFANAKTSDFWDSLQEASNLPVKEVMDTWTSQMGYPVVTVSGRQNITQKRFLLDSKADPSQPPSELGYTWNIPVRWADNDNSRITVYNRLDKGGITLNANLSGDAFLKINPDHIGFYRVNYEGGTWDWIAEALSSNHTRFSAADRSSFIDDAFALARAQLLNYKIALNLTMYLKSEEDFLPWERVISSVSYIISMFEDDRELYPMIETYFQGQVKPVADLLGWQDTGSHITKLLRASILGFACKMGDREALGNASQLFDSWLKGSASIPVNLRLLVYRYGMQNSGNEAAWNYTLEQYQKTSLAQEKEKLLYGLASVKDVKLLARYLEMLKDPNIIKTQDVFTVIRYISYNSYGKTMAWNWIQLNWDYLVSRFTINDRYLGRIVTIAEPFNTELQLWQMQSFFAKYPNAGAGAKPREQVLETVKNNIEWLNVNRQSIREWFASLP
Assay: Measurement of APA activity in vitro (GluβNa hydrolysis, microplate)
Format: biochemical
Conditions: 200 μM Glu-βNa, pH 7.4, 37° C., read-out: In vitro inhibition of aminopeptidase A, IC50 classification
From the text: In vitro, in the presence of calcium ions, APA hydrolyses a synthetic substrate α-L-glutamyl-β-naphthylamide (GluβNa) to glutamate and β-naphthylamine (βNa). A diazotation reaction in acidic medium makes it possible to reveal the β-naphthylamine by formation of a violet-coloured complex: spectrophotometric measurement then makes it possible to know the amount of complex formed and, by reference to a standard curve produced with increasing concentrations of β-naphthylamine, to deduce the enzymatic activity of the sample.
The reaction takes place at pH 7.4 in 50 mM tris-HCl buffer, in the presence of calcium (4 mM CaCl2)); recombinant mouse APA is incubated at 37° C. in the presence of the substrate (200 μM Glu-βNa) and in the presence or absence of various concentrations of the inhibitor to be tested, in a final volume of 100 μL. The reaction is stopped by adding 10 μL of 3N HCl. A standard curve of β-naphthylamine was prepared in parallel by diazotizing increasing concentrations (up to 0.2 mM) of 2-naphthylamine in 0.1 N HCl.
The following are added to each well: 25 μL of sodium nitrite (NaNO2) (mix, wait 5 minutes at room temperature), 50 μL of ammonium sulfamate (mix, wait 5 minutes at room temperature), then add 25 μL of N-(1-naphthyl) ethylenediamine dihydrochloride (mix, wait for stabilization of the violet colour for approximately 30 minutes at 37° C.).
The absorbance is then measured at 540 nm.

| Compound | IC50 [nM] |
| --- | --- |
| NC(CCC(=O)O)P(=O)(O)Cc1ccccc1 (stereo not shown) [Example 1, 4-amino-4-[benzyl(hydroxy)phosphoryl]butanoic acid] | 30 to 300 |
| Cc1ccccc1CP(=O)(O)C(N)CCC(=O)O (stereo not shown) [Example 2, 4-amino-4-{hydroxy[(2-methylphenyl)methyl]phosphoryl}butanoic acid] | 30 to 300 |
| Cc1cccc(CP(=O)(O)C(N)CCC(=O)O)c1 (stereo not shown) [Example 3, 4-amino-4-{hydroxy[(3-methylphenyl)methyl]phosphoryl}butanoic acid] | 30 to 300 |
| Cc1ccc(CP(=O)(O)C(N)CCC(=O)O)cc1 (stereo not shown) [Example 4, 4-amino-4-{hydroxy[(4-methylphenyl)methyl]phosphoryl}butanoic acid] | 30 to 300 |
| NC(CCC(=O)O)P(=O)(O)Cc1cc(C(F)(F)F)cc(C(F)(F)F)c1 (stereo not shown) [Example 5, 4-amino-4-({[3,5-bis(trifluoromethyl)phenyl]methyl}(hydroxy)phosphoryl) butanoic acid] | 300 to 10000 |
| NC(CCC(=O)O)P(=O)(O)Cc1ccccc1-c1ccccc1 (stereo not shown) [Example 6, 4-amino-4-[({[1,1′-biphenyl]-2-yl}methyl)(hydroxy)phosphoryl]butanoic acid] | 300 to 10000 |
| NC(CCC(=O)O)P(=O)(O)Cc1cccc(OC(F)(F)F)c1 (stereo not shown) [Example 7, 4-amino-4-[hydroxy({[3-(trifluoromethoxy)phenyl]methyl})phosphoryl]butanoic acid] | 30 to 300 |
| NC(CCC(=O)O)P(=O)(O)Cc1ccc(OC(F)(F)F)cc1 (stereo not shown) [Example 8, 4-amino-4-[hydroxy({[4-(trifluoromethoxy)phenyl]methyl})phosphoryl]butanoic acid] | 30 to 300 |
| CS(=O)(=O)c1ccc(CP(=O)(O)C(N)CCC(=O)O)cc1 (stereo not shown) [Example 9, 4-amino-4-{hydroxy[(4-methanesulfonylphenyl)methyl]phosphoryl}butanoic acid] | 300 to 10000 |
| COc1ccccc1CP(=O)(O)C(N)CCC(=O)O (stereo not shown) [Example 10, 4-amino-4-{hydroxy[(2-methoxyphenyl)methyl]phosphoryl}butanoic acid] | < 30 |
| COc1cccc(CP(=O)(O)C(N)CCC(=O)O)c1 (stereo not shown) [Example 11, 4-amino-4-{hydroxy[(3-methoxyphenyl)methyl]phosphoryl}butanoic acid] | < 30 |
| COc1ccc(CP(=O)(O)C(N)CCC(=O)O)cc1 (stereo not shown) [Example 12, 4-amino-4-{hydroxy[(4-methoxyphenyl)methyl]phosphoryl}butanoic acid] | 30 to 300 |
| N#Cc1cccc(CP(=O)(O)C(N)CCC(=O)O)c1 (stereo not shown) [Example 13, 4-amino-4-{[(3-cyanophenyl)methyl](hydroxy)phosphoryl}butanoic acid] | 30 to 300 |
| N#Cc1ccc(CP(=O)(O)C(N)CCC(=O)O)cc1 (stereo not shown) [Example 14, 4-amino-4-{[(4-cyanophenyl)methyl](hydroxy)phosphoryl}butanoic acid] | 30 to 300 |
| NC(CCC(=O)O)P(=O)(O)Cc1cccc2ccccc12 (stereo not shown) [Example 15, 4-amino-4-{hydroxy[(naphthalen-1-yl)methyl]phosphoryl}butanoic acid] | < 30 |
| NC(CCC(=O)O)P(=O)(O)Cc1ccccc1Oc1ccccc1 (stereo not shown) [Example 16, 4-amino-4-{hydroxy[(2-phenoxyphenyl)methyl]phosphoryl}butanoic acid] | 30 to 300 |
| NC(CCC(=O)O)P(=O)(O)Cc1cccc(Oc2ccccc2)c1 (stereo not shown) [Example 17, 4-amino-4-{hydroxy[(3-phenoxyphenyl)methyl]phosphoryl}butanoic acid] | 30 to 300 |
| NC(CCC(=O)O)P(=O)(O)Cc1ccc(Oc2ccccc2)cc1 (stereo not shown) [Example 18, 4-amino-4-{hydroxy[(4-phenoxyphenyl)methyl]phosphoryl}butanoic acid] | 30 to 300 |
| NC(CCC(=O)O)P(=O)(O)Cc1cccc(-c2ccccc2)c1 (stereo not shown) [Example 19, 4-amino-4-[({[1,1′-biphenyl]-3-yl}methyl)(hydroxy)phosphoryl]butanoic acid] | 30 to 300 |

| Compound | IC50 [nM] |
| --- | --- |
| NC(CCC(=O)O)P(=O)(O)Cc1cc(-c2ccccc2)no1 (stereo not shown) [Example 20, 4-amino-4-{hydroxy[(3-phenyl-1,2-oxazol-5-yl)methyl]phosphoryl}butanoic acid] | 300 to 10000 |
| NC(CCC(=O)O)P(=O)(O)Cc1cc(-c2ccccc2)on1 (stereo not shown) [Example 21, 4-amino-4-{hydroxy[(5-phenyl-1,2-oxazol-3-yl)methyl]phosphoryl}butanoic acid] | 30 to 300 |
| Cc1ccccc1CCP(=O)(O)C(N)CCC(=O)O (stereo not shown) [Example 23, 4-amino-4-{hydroxy[2-(2-methylphenyl)ethyl]phosphoryl}butanoic acid] | < 30 |
| Cc1cccc(CCP(=O)(O)C(N)CCC(=O)O)c1 (stereo not shown) [Example 24, 4-amino-4-{hydroxy[2-(3-methylphenyl)ethyl]phosphoryl}butanoic acid] | < 30 |
| Cc1ccc(CCP(=O)(O)C(N)CCC(=O)O)cc1 (stereo not shown) [Example 25, 4-amino-4-{hydroxy[2-(4-methylphenyl)ethyl]phosphoryl}butanoic acid] | < 30 |
| NC(CCC(=O)O)P(=O)(O)CCc1cccc(C(F)(F)F)c1 (stereo not shown) [Example 26, 4-amino-4-[hydroxy({2-[3-(trifluoromethyl)phenyl]ethyl})phosphoryl]butanoic acid] | 30 to 300 |
| CC(C)(CP(=O)(O)C(N)CCC(=O)O)c1ccccc1 (stereo not shown) [Example 27, 4-amino-4-[hydroxy(2-methyl-2-phenylpropyl)phosphoryl]butanoic acid] | 300 to 10000 |
| NC(CCC(=O)O)P(=O)(O)CCc1ccccc1Cl (stereo not shown) [Example 28, 4-amino-4-{[2-(2-chlorophenyl)ethyl](hydroxy)phosphoryl}butanoic acid] | < 30 |
| NC(CCC(=O)O)P(=O)(O)CCc1cccc(Cl)c1 (stereo not shown) [Example 29, 4-amino-4-{[2-(3-chlorophenyl)ethyl](hydroxy)phosphoryl}butanoic acid] | 30 to 300 |
| NC(CCC(=O)O)P(=O)(O)CCc1ccc2ccccc2c1 (stereo not shown) [Example 30, 4-amino-4-{hydroxy[2-(naphthalen-2-yl)ethyl]phosphoryl}butanoic acid] | < 30 |
| NC(CCC(=O)O)P(=O)(O)CCc1cccc2ccccc12 (stereo not shown) [Example 31, 4-amino-4-{hydroxy[2-(naphthalen-1-yl)ethyl]phosphoryl}butanoic acid] | < 30 |
| COc1ccccc1CCP(=O)(O)C(N)CCC(=O)O (stereo not shown) [Example 32, 4-amino-4-{hydroxy[2-(2-methoxyphenyl)ethyl]phosphoryl}butanoic acid] | < 30 |
| COc1cccc(CCP(=O)(O)C(N)CCC(=O)O)c1 (stereo not shown) [Example 33, 4-amino-4-{hydroxy[2-(3-methoxyphenyl)ethyl]phosphoryl} butanoic acid] | < 30 |
| COc1ccc(CCP(=O)(O)C(N)CCC(=O)O)cc1 (stereo not shown) [Example 34, 4-amino-4-{hydroxy[2-(4-methoxyphenyl)ethyl]phosphoryl}butanoic acid] | < 30 |
| NC(CCC(=O)O)P(=O)(O)CCc1ccccc1Oc1ccccc1 (stereo not shown) [Example 35, 4-amino-4-{hydroxy[2-(2-phenoxyphenyl)ethyl]phosphoryl}butanoic acid] | < 30 |
| NC(CCC(=O)O)P(=O)(O)CCc1ccccc1OC1CCCC1 (stereo not shown) [Example 36, 4-amino-4-({2-[2-(cyclopentyloxy)phenyl]ethyl}(hydroxy)phosphoryl) butanoic acid] | < 30 |
| NC(CCC(=O)O)P(=O)(O)CCCc1ccccc1 (stereo not shown) [Example 37, 4-amino-4-[hydroxy(3-phenylpropyl)phosphoryl]butanoic acid] | 30 to 300 |
| NC(CCC(=O)O)P(=O)(O)CCc1ccccc1OC(F)(F)F (stereo not shown) [Example 38, 4-amino-4-[hydroxy({2-[2-(trifluoromethoxy)phenyl]ethyl})phosphoryl]butanoic acid] | < 30 |
